The first test concerns the target Substance-P receptor (Homo sapiens, UniProt P25103). In words: Displacement of [3H]-labeled substance P from cloned human NK1 receptor expressed in CHO cells. The class given is cell-based.
Settings: not given
Chain of Substance-P receptor (P25103 whole entry): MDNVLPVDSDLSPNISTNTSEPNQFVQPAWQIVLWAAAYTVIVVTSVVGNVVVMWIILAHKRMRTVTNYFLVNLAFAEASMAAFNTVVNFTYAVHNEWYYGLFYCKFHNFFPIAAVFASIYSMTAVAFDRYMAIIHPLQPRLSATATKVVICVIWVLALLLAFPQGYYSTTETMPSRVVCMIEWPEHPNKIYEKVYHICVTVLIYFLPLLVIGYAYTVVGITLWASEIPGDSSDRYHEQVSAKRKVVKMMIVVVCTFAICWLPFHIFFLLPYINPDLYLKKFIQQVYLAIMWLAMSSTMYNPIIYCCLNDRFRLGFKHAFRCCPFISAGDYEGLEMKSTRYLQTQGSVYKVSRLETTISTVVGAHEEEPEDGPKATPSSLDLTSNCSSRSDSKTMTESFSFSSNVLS
`Cc1ccccc1-c1ccccc1/C=N/Nc1c(Cl)cncc1Cl` gave a Ki of 0.316 µM.
`FC(F)(F)c1cc(CNCc2ccccc2-c2ccccc2)cc(C(F)(F)F)c1` came in with a Ki of 0.372 µM.
With `Cc1ccccc1-c1cc(N2CCN(C)CC2)ncc1N(C)C(=O)C(C)(C)c1cc(C(F)(F)F)cc(C(F)(F)F)c1` [NETUPITANT], the Ki is 0.00095 µM.
The compound `Clc1cncc(Cl)c1N/N=C/c1ccccc1-c1c(Cl)cccc1Cl` registered a Ki of 0.093 µM.
In turn, `CN(Cc1cc(C(F)(F)F)cc(C(F)(F)F)c1)C(=O)c1ccccc1-c1ccccc1Cl` returned a Ki of 0.022 µM.
With `CN(C(=O)Cc1cc(C(F)(F)F)cc(C(F)(F)F)c1)c1ccccc1-c1ccccc1`, the Ki amounted to 0.562 µM.
On to `Cc1ccccc1-c1cccnc1C(=O)N(C)Cc1cc(C(F)(F)F)cc(C(F)(F)F)c1`, for which the Ki was 0.0038 µM.
On the same count and under the same terms, the same measure for `Cc1ccccc1-c1cnc(N2CCN(C)CC2)nc1N(C)C(=O)C(C)(C)c1cc(C(F)(F)F)cc(C(F)(F)F)c1`: 0.0011 µM.
Regarding `Cc1ccccc1-c1ccncc1C(=O)N(C)Cc1cc(C(F)(F)F)cc(C(F)(F)F)c1`, affinity was put at a Ki of 0.0085 µM.
Regarding `Cc1ccccc1-c1cc(N2CCC(O)CC2)ncc1N(C)C(=O)C(C)(C)c1cc(C(F)(F)F)cc(C(F)(F)F)c1`, the affinity corresponds to a Ki of 0.0004 µM.
Still for that read-out and setting: under `CN(C(=O)c1ccccc1-c1ccccc1)C(C)(C)c1cc(C(F)(F)F)cc(C(F)(F)F)c1` stands 0.295 µM.
The compound `CN(Cc1cc(C(F)(F)F)cc(C(F)(F)F)c1)C(=O)c1ccccc1-c1ccccc1` yielded a Ki of 0.051 µM.
`Cc1ccccc1-c1nc(N2CCN(C)CC2)ncc1N(C)C(=O)C(C)(C)c1cc(C(F)(F)F)cc(C(F)(F)F)c1` displayed a Ki of 0.00044 µM.
Same read-out and setting: under `CN(Cc1cc(C(F)(F)F)cc(C(F)(F)F)c1)C(=O)c1ccccc1-c1ccccc1Br` stands 0.045 µM; under `Clc1cncc(Cl)c1N/N=C/c1ccccc1-c1ccccc1`, 0.933 µM; under `FC(F)(F)c1cc(COCc2ccccc2-c2ccccc2)cc(C(F)(F)F)c1`, 0.224 µM.
Compound `O=C(NCc1cc(C(F)(F)F)cc(C(F)(F)F)c1)c1ccccc1-c1ccccc1` showed a Ki of more than 10 µM.
In the case of `Clc1ccccc1-c1ccccc1/C=N/Nc1c(Cl)cncc1Cl`, the Ki came to 0.174 µM.
As for `Cc1ccccc1-c1cc(N2CCN(C)CC2)ccc1C(=O)N(C)Cc1cc(C(F)(F)F)cc(C(F)(F)F)c1`, the Ki came out at 0.0014 µM.
In turn, `Cc1ccccc1-c1cc(N2CCS(=O)(=O)CC2)ncc1N(C)C(=O)C(C)(C)c1cc(C(F)(F)F)cc(C(F)(F)F)c1` returned a Ki of 0.0013 µM.
As to `Cc1ccccc1-c1cnccc1C(=O)N(C)Cc1cc(C(F)(F)F)cc(C(F)(F)F)c1`, the Ki was 0.0046 µM.
In the case of `Cc1onc(-c2c(Cl)cccc2Cl)c1/C=N/Nc1c(Cl)cncc1Cl`, the Ki worked out at 0.015 µM.
For the compound `Clc1cncc(Cl)c1N/N=C/c1ccccc1-c1ccccc1Br`, the Ki was 0.049 µM.
Take `Cc1ccccc1-c1cccnc1N(C)C(=O)C(C)(C)c1cc(C(F)(F)F)cc(C(F)(F)F)c1`: the Ki was found to be 0.004 µM.
As to `Cc1ccccc1-c1cnc(N2CCN(C)CC2)cc1N(C)C(=O)C(C)(C)c1cc(C(F)(F)F)cc(C(F)(F)F)c1`, the Ki came to 0.0017 µM.
On to `Cc1ccccc1-c1cnccc1N(C)C(=O)C(C)(C)c1cc(C(F)(F)F)cc(C(F)(F)F)c1`, for which the Ki was 0.0033 µM.
As for `CN(Cc1cc(C(F)(F)F)cc(C(F)(F)F)c1)Cc1ccccc1-c1ccccc1`, the Ki was determined as 0.724 µM.
Regarding `CC(C)(NC(=O)c1ccccc1-c1ccccc1)c1cc(C(F)(F)F)cc(C(F)(F)F)c1`, the Ki was more than 10 µM.
`Cc1ccccc1-c1nc(N2CCN(C)CC2)ncc1C(=O)N(C)Cc1cc(C(F)(F)F)cc(C(F)(F)F)c1` came in with a Ki of 0.0017 µM.
For `Cc1ccccc1-c1ccc(N2CCN(C)CC2)nc1N(C)C(=O)C(C)(C)c1cc(C(F)(F)F)cc(C(F)(F)F)c1`, the Ki was determined as 0.002 µM.
Same read-out and setting: the same measure for `CN(C(=O)C(C)(C)c1cc(C(F)(F)F)cc(C(F)(F)F)c1)c1ccccc1-c1ccccc1`: 0.068 µM.
With `Cc1ccccc1-c1ccc(N2CCN(C)CC2)nc1C(=O)N(C)Cc1cc(C(F)(F)F)cc(C(F)(F)F)c1`, the affinity corresponds to a Ki of 0.0062 µM.

The subject of a further test is Gerbil, jird. In words: Inhibition of GR-73632 induced foot tapping in gerbil, po. The class given is functional. The conditions noted are these: Meriones, read-out: ID50 (the source's name).
For `Cc1ccccc1-c1cc(N2CCN(C)CC2)ncc1N(C)C(=O)C(C)(C)c1cc(C(F)(F)F)cc(C(F)(F)F)c1` [NETUPITANT], the ED50 amounted to 0.5 mg/kg.
Turning to `Cc1ccccc1-c1cc(N2CCC(O)CC2)ncc1N(C)C(=O)C(C)(C)c1cc(C(F)(F)F)cc(C(F)(F)F)c1`, the ED50 came to 0.5 mg/kg.
On to `Cc1ccccc1-c1cc(N2CCS(=O)(=O)CC2)ncc1N(C)C(=O)C(C)(C)c1cc(C(F)(F)F)cc(C(F)(F)F)c1`, for which the ED50 came to 0.8 mg/kg.
As for `Cc1ccccc1-c1cc(N2CCOCC2)ncc1N(C)C(=O)C(C)(C)c1cc(C(F)(F)F)cc(C(F)(F)F)c1` [BEFETUPITANT], the ED50 was 0.2 mg/kg.

One may read the Ki as the equilibrium dissociation constant of an inhibitor or competing ligand from its target. Low readings indicate a stronger hold on the target, high ones a looser hold on the target.
